Assays:
[1] = Pharmacokinetics of WN-compounds in mice (brain and serum concentration, HPLC); assay type: in vivo, mouse (C57BL/6N)
Procedure: Wild type mice at 8 weeks (male, C57BL/6N) were used for the analysis of CPN-9, WN1303R, WN1312, WN1315 and WN1316 pharmacokinetics. CPN-9 was suspended in 0.5% carboxymethyl cellulose (CMC)-Na (carmellose sodium, Maruishi Pharmaceutical Co., Ltd.), while WN1303R, WN1312 and WN1316 were dissolved in Milli-Q purified water (MQ water) and WN1315 was dissolved in 0.25 N HCl. CPN-9 (100 mg/kg body weight) and the four WN-compounds (50 mg/kg body weight) were injected intragastrically (i.g.). After 15 min, 30 min, 1 h, 2 h, 4 h, 6 h, and 8 h, blood was collected from heart of each mouse anesthetized with 2% isoflurane by inhalation or 4% halothane in a mixture of N2O/O2 (70∶30). Mice were thereafter perfused transcardially with physiological saline containing 10% heparin under anesthesia, and the whole brain was removed. Each blood sample was centrifuged at 1,000×g for 10 min at 4°C, and the serum fraction was collected. The brain was frozen in liquid nitrogen, and was cryopreserved until use.
We mixed serum with deproteinization buffer (0.05 M H2SO4, 2.5 M K2CO3, and […]), and collected the organic layer after centrifugation at 1,500×g for 10 min. The organic layer was mixed with 0.05 M H2SO4, and then, after centrifugation at 1,500×g for 10 min, the water layer was collected. After the addition of methanol, each serum derived sample was subjected to HPLC.
Mouse whole brain was homogenized with acetonitrile and left at −80°C for 10 min. The supernatant was collected after centrifugation at 10,000×g for 10 min at 4°C and was dried under vacuum. The dried sample was re-dissolved in methanol and mixed with two volumes of 10 mM phosphate buffer (pH7.0), after which the supernatant was collected by centrifugation at 10,000×g for 10 min at 4°C and then left at −80°C for 10 min. To further remove debris, the supernatant was filtered (0.45 µm filter), centrifuged (at 10,000×g for 10 min at 4°C), filtered (0.22 µm filter) and finally centrifuged again. Each sample solution from brain was subjected to HPLC.
The concentrations of CPN-9 and WN1316 in the serum and brain samples were determined by HPLC on a CAPCELL PAK C18 column (SHISEIDO) with 50% acetonitrile (CPN-9), 40% acetonitrile (WN1316) or 45% acetonitrile (WN1303R, WN1312, and WN1315) in 10 mM phosphate buffer (pH 7.0).

[2] = set-up: method as in PMID 23000247; conditions: cited from earlier work
[3] = Water solubility (stated property); assay type: physicochemical
[4] = C57BL/6N mice, intragastric, 100 mg/kg in 0.5% CMC-Na, n = 3, mean ± SD

- AUC0–8: Brain [1, 4]: 1.0±1.3 µg⋅h/g
- AUC0–8: Serum [1, 4]: 5.9±0.8 µg⋅h/ml
- water solubility (in words) [3]: hardly water soluble
SMILES: Cc1cc(C)c(OCC(=O)Nc2nc(-c3ccccn3)cs2)c(C)c1 [CPN-9, N-(4-(2-pyridyl)(1,3-thiazol-2-yl))-2-(2,4,6-trimethylphenoxy) acetamide, reference compound]
- BBB permeability (in words) ([1]; mouse, in vivo): very poor blood-brain-barrier (BBB) permeability
- toxicity (in words) [2]: considerable toxicity

Reference: article PMC3909264, “A Novel Acylaminoimidazole Derivative, WN1316, Alleviates Disease Progression via Suppression of Glial Inflammation in ALS Mouse Model” (PLoS ONE, 2014)
